In patent publication US10131652B2, “Pyrimidinyloxy benzene derivatives as herbicides” (E. I. DU PONT DE NEMOURS AND COMPANY, priority 2014, dated 2018):
Read-outs that look alike come from different tables or passages of the source.

Key:
Assay type in all cases: in vivo
[1] = test system: rice (Oryza sativa); assay: Test C flooded paddy test plant response; details: Oryza sativa; Flood, 250 g ai/ha; scale of 0 to 100 where 0 is no effect and 100 is complete control; 13 to 15 days; read-out: Rice plant response rating
Outline: (§1)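 Water-applied treatment: compounds go directly into floodwater standing 3 cm over the soil of pots holding 2-leaf-stage plants. Depth is kept constant; plants stay in a greenhouse 13 to 15 days before visual comparison with controls on a 0–100 scale.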

[2] = test system: ducksalad (Heteranthera limosa); assay: Test C flooded paddy test plant response; details: Heteranthera limosa; Flood, 250 g ai/ha; scale of 0 to 100 where 0 is no effect and 100 is complete control; 13 to 15 days; read-out: Ducksalad plant response rating
Outline: as §1

[3] = test system: small-flower umbrella sedge (Cyperus difformis); assay: Test C flooded paddy test plant response; details: Cyperus difformis; Flood, 250 g ai/ha; scale of 0 to 100 where 0 is no effect and 100 is complete control; 13 to 15 days; read-out: Sedge, Umbrella plant response rating
Outline: as §1

[4] = test system: barnyardgrass (Echinochloa crus-galli); assay: Test C flooded paddy test plant response; details: Echinochloa crus-galli; Flood, 250 g ai/ha; scale of 0 to 100 where 0 is no effect and 100 is complete control; 13 to 15 days; read-out: Barnyardgrass plant response rating
Outline: as §1

[5] = test system: pigweed (Amaranthus retroflexus); assay: Test B pre-/postemergence plant response; details: Amaranthus retroflexus, 240 h, read-out: Plant response rating, Pigweed; for pest or weed control at 125 g/ha: 125 g ai/ha; for pest or weed control at 500 g/ha: 500 g ai/ha
Outline: (§2)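 Steps: plant seeds in loam soil–sand mix; spray soil preemergence, and in parallel spray 2–10 cm one- to two-leaf plants postemergence; hold ~10 days in greenhouse; visually rate injury against untreated controls (0 = no effect, 100 = complete control).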

[6] = test system: giant foxtail (Setaria faberii); assay: Test B pre-/postemergence plant response; details: Setaria faberi, 240 h, read-out: Plant response rating, Foxtail, Giant; for pest or weed control at 125 g/ha: 125 g ai/ha; for pest or weed control at 500 g/ha: 500 g ai/ha
Outline: as §2

[7] = test system: wheat (Triticum aestivum); assay: Test B pre-/postemergence plant response; details: Triticum aestivum, post-emergence, 240 h, read-out: Plant response rating, Wheat
Outline: as §2

[8] = test system: corn (Zea mays); assay: Test B pre-/postemergence plant response; details: Zea mays, post-emergence, 240 h
Outline: as §2

[9] = test system: barnyardgrass (Echinochloa crus-galli); assay: Test B pre-/postemergence plant response; details: Echinochloa crus-galli, 240 h, read-out: Plant response rating, Barnyardgrass; for pest or weed control at 125 g/ha: 125 g ai/ha; for pest or weed control at 500 g/ha: 500 g ai/ha
Outline: as §2

[10] = test system: galium (catchweed bedstraw, Galium aparine); assay: Test D pre-/postemergence plant response; details: Galium; for pest or weed control at 16 g/ha: 16 g ai/ha; for pest or weed control at 31 g/ha: 31 g ai/ha; for pest or weed control at 62 g/ha: 62 g ai/ha; for pest or weed control at 125 g/ha: 125 g ai/ha
Outline: (§3)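 0 = no effect, 100 = complete control: plants were scored this way by visual comparison with controls 13 to 15 days post-treatment. Application was preemergence to sown loam/sand pots or postemergence to 2–18 cm seedlings in peat-based mix.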

[11] = test system: yellow nutsedge (Cyperus esculentus); assay: Test D pre-/postemergence plant response; details: Cyperus, pre-emergence, Preemergence
Outline: as §3

[12] = test system: oilseed rape (Brassica napus); assay: Test D pre-/postemergence plant response; details: Brassica napus; for plant injury at 16 g/ha: 16 g ai/ha; for plant injury at 31 g/ha: 31 g ai/ha; for plant injury at 62 g/ha: 62 g ai/ha; for plant injury at 125 g/ha: 125 g ai/ha
Outline: as §3

[13] = test system: ragweed (common ragweed, Ambrosia elatior); assay: Test D pre-/postemergence plant response; details: Ambrosia artemisiifolia; for pest or weed control at 16 g/ha: 16 g ai/ha; for pest or weed control at 31 g/ha: 31 g ai/ha; for pest or weed control at 62 g/ha: 62 g ai/ha; for pest or weed control at 125 g/ha: 125 g ai/ha
Outline: as §3

[14] = test system: winter wheat (Triticum aestivum); assay: Test D pre-/postemergence plant response; details: Triticum aestivum; for plant injury at 16 g/ha: 16 g ai/ha; for plant injury at 31 g/ha: 31 g ai/ha; for plant injury at 62 g/ha: 62 g ai/ha; for plant injury at 125 g/ha: 125 g ai/ha
Outline: as §3

[15] = test system: johnsongrass (Sorghum halepense); assay: Test D pre-/postemergence plant response; details: Sorghum halepense; for pest or weed control at 16 g/ha: 16 g ai/ha; for pest or weed control at 31 g/ha: 31 g ai/ha; for pest or weed control at 62 g/ha: 62 g ai/ha; for pest or weed control at 125 g/ha: 125 g ai/ha
Outline: as §3

[16] = post-emergence, postemergence, 0 to 100 scale, 0 no effect, 100 complete control
[17] = post-emergence, Postemergence, 0 to 100 scale (0 no effect, 100 complete control)
[18] = pre-emergence, Preemergence, 0 to 100 scale where 0 is no effect and 100 is complete control
[19] = 125 g ai/ha, postemergence, 0 to 100 scale, 0 no effect, 100 complete control
[20] = Postemergence, 500 g ai/ha, 0 to 100 scale (0 no effect, 100 complete control)
[21] = post-emergence, Postemergence, scale 0 to 100 (0 no effect, 100 complete control), read-out: Galium plant response rating
[22] = post-emergence, Postemergence, scale 0 to 100, 0 no effect, 100 complete control, read-out: Plant response rating, Galium
[23] = pre-emergence, Preemergence, scale 0 to 100 (0 no effect, 100 complete control), read-out: Plant response rating, Galium
[24] = post-emergence, Postemergence, scale 0 to 100 (0 no effect, 100 complete control), read-out: Oilseed Rape plant response rating
[25] = post-emergence, Postemergence, scale 0 to 100, 0 no effect, 100 complete control, read-out: Plant response rating, Oilseed Rape
[26] = pre-emergence, Preemergence, scale 0 to 100 (0 no effect, 100 complete control), read-out: Plant response rating, Oilseed Rape
[27] = post-emergence, Postemergence, scale 0 to 100 (0 no effect, 100 complete control), read-out: Ragweed plant response rating
[28] = post-emergence, Postemergence, scale 0 to 100, 0 no effect, 100 complete control, read-out: Plant response rating, Ragweed
[29] = pre-emergence, Preemergence, scale 0 to 100 (0 no effect, 100 complete control), read-out: Plant response rating, Ragweed
[30] = post-emergence, Postemergence, scale 0 to 100 (0 no effect, 100 complete control), read-out: Wheat plant response rating
[31] = post-emergence, Postemergence, scale 0 to 100, 0 no effect, 100 complete control, read-out: Plant response rating, Wheat
[32] = pre-emergence, Preemergence, scale 0 to 100 (0 no effect, 100 complete control), read-out: Plant response rating, Wheat
[33] = post-emergence, Postemergence, scale 0 to 100 (0 no effect, 100 complete control), read-out: Johnsongrass plant response rating
[34] = post-emergence, Postemergence, scale 0 to 100, 0 no effect, 100 complete control, read-out: Plant response rating, Johnsongrass
[35] = pre-emergence, Preemergence, scale 0 to 100 (0 no effect, 100 complete control), read-out: Plant response rating, Johnsongrass

## FC(F)c1cc(-c2ccccc2Oc2ncc(Cl)cn2)on1 [Compound 53, 5-chloro-2-[2-[3-(difluoromethyl)-5-isoxazolyl]phenoxy]pyrimidine]
[1]
  plant injury at 250 g/ha: 20%
[2]
  pest or weed control at 250 g/ha: 80%
[3]
  pest or weed control at 250 g/ha: 75%
[4]
  pest or weed control at 250 g/ha: 20%
[5]; [16]
  pest or weed control at 125 g/ha: 100%
[5]; [17]
  pest or weed control at 500 g/ha: 100%
[5]; [18]
  pest or weed control at 125 g/ha: 100%
  pest or weed control at 500 g/ha: 100%
[6]; [16]
  pest or weed control at 125 g/ha: 100%
[6]; [17]
  pest or weed control at 500 g/ha: 100%
[6]; [18]
  pest or weed control at 125 g/ha: 90%
  pest or weed control at 500 g/ha: 100%
[7]; [19]
  plant injury at 125 g/ha: 40%
[7]; [20]
  plant injury at 500 g/ha: 80%
[8]; [19]
  Corn plant response rating (crop injury, 0 = no effect, 100 = complete kill) at 125 g/ha: 10%
[8]; [20]
  Corn plant response rating (crop injury, 0 = no effect, 100 = complete kill) at 500 g/ha: 70%
[9]; [16]
  pest or weed control at 125 g/ha: 100%
[9]; [17]
  pest or weed control at 500 g/ha: 100%
[9]; [18]
  pest or weed control at 125 g/ha: 90%
  pest or weed control at 500 g/ha: 100%
[10]; [21]
  pest or weed control at 16 g/ha: 60%
  pest or weed control at 31 g/ha: 85%
[10]; [22]
  pest or weed control at 62 g/ha: 95%
  pest or weed control at 125 g/ha: 90%
[10]; pre-emergence, Preemergence, read-out: Plant response rating (scale 0 to 100), Galium
  pest or weed control at 125 g/ha: 98%
[10]; [23]
  pest or weed control at 16 g/ha: 85%
  pest or weed control at 31 g/ha: 95%
  pest or weed control at 62 g/ha: 100%
[11]; 125 g ai/ha, read-out: Plant response rating (scale 0 to 100), Nutsedge, Yellow
  pest or weed control at 125 g/ha: 5%
[11]; 16 g ai/ha, scale 0 to 100 (0 no effect, 100 complete control), read-out: Plant response rating, Nutsedge, Yellow
  pest or weed control at 16 g/ha: 20%
[11]; 31 g ai/ha, scale 0 to 100 (0 no effect, 100 complete control), read-out: Plant response rating, Nutsedge, Yellow
  pest or weed control at 31 g/ha: 0%
[11]; 62 g ai/ha, scale 0 to 100 (0 no effect, 100 complete control), read-out: Plant response rating, Nutsedge, Yellow
  pest or weed control at 62 g/ha: 0%
[12]; [24]
  plant injury at 16 g/ha: 70%
  plant injury at 31 g/ha: 80%
[12]; [25]
  plant injury at 62 g/ha: 95%
  plant injury at 125 g/ha: 85%
[12]; pre-emergence, Preemergence, read-out: Plant response rating (scale 0 to 100), Oilseed Rape
  plant injury at 125 g/ha: 100%
[12]; [26]
  plant injury at 16 g/ha: 80%
  plant injury at 31 g/ha: 100%
  plant injury at 62 g/ha: 100%
[13]; [27]
  pest or weed control at 16 g/ha: 50%
  pest or weed control at 31 g/ha: 50%
[13]; [28]
  pest or weed control at 62 g/ha: 55%
  pest or weed control at 125 g/ha: 55%
[13]; pre-emergence, Preemergence, read-out: Plant response rating (scale 0 to 100), Ragweed
  pest or weed control at 125 g/ha: 85%
[13]; [29]
  pest or weed control at 16 g/ha: 0%
  pest or weed control at 31 g/ha: 40%
  pest or weed control at 62 g/ha: 55%
[14]; [30]
  plant injury at 16 g/ha: 0%
  plant injury at 31 g/ha: 0%
[14]; [31]
  plant injury at 62 g/ha: 0%
  plant injury at 125 g/ha: 0%
[14]; pre-emergence, Preemergence, read-out: Plant response rating (scale 0 to 100), Wheat
  plant injury at 125 g/ha: 5%
[14]; [32]
  plant injury at 16 g/ha: 0%
  plant injury at 31 g/ha: 0%
  plant injury at 62 g/ha: 0%
[15]; [33]
  pest or weed control at 16 g/ha: 0%
  pest or weed control at 31 g/ha: 0%
[15]; [34]
  pest or weed control at 62 g/ha: 5%
  pest or weed control at 125 g/ha: 5%
[15]; pre-emergence, Preemergence, read-out: Plant response rating (scale 0 to 100), Johnsongrass
  pest or weed control at 125 g/ha: 55%
[15]; [35]
  pest or weed control at 16 g/ha: 0%
  pest or weed control at 31 g/ha: 0%
  pest or weed control at 62 g/ha: 35%
